Values joined by “and” are separate entries in the source; they are usually repeats but may differ in a detail not shown here. Equal values may be shown once. Inconclusive results and toxic doses are left out. The calls were made as follows: active = survival T/C of 150% or more; inactive = T/C below 125% in these data.
Tested on: CD2F1 mice, L1210 leukemia ip, survival T/C
Assay: NCI In Vivo Anticancer Drug Screen. Data for tumor model L1210 Leukemia (intraperitoneal) in CD2F1 (CDF1) mice
Conditions: higher = longer survival
How it was run: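 Activity against a transplanted murine tumor was judged by comparing the compound group with a vehicle group. The outcome in the treated animals was divided by that in the controls.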

[1] = endpoint: mean survival time, dose: 100.0 mg/kg/injection, schedule: Q01DX001 (ip), vehicle: saline
[2] = endpoint: mean survival time, dose: 100.0 mg/kg/injection, schedule: Q04DX003 (ip), vehicle: saline
[3] = endpoint: mean survival time, dose: 200.0 mg/kg/injection, schedule: Q01DX001 (ip), vehicle: saline
[4] = endpoint: mean survival time, dose: 200.0 mg/kg/injection, schedule: Q04DX003 (ip), vehicle: saline
[5] = endpoint: mean survival time, dose: 400.0 mg/kg/injection, schedule: Q01DX001 (ip), vehicle: saline
[6] = endpoint: mean survival time, dose: 400.0 mg/kg/injection, schedule: Q04DX003 (ip), vehicle: saline
[7] = endpoint: mean survival time, dose: 100.0 mg/kg/injection, schedule: Q04DX003 (ip), vehicle: saline with Tween-80
[8] = endpoint: mean survival time, dose: 100.0 mg/kg/injection, schedule: Q04DX002 (ip), vehicle: saline with Tween-80
[9] = endpoint: mean survival time, dose: 200.0 mg/kg/injection, schedule: Q04DX002 (ip), vehicle: saline with Tween-80
[10] = endpoint: mean survival time, dose: 400.0 mg/kg/injection, schedule: Q04DX002 (ip), vehicle: saline with Tween-80
[11] = endpoint: mean survival time, dose: 100.0 mg/kg/injection, schedule: Q01DX009 (ip), vehicle: saline with Tween-80
[12] = endpoint: mean survival time, dose: 200.0 mg/kg/injection, schedule: Q01DX009 (ip), vehicle: saline with Tween-80
[13] = endpoint: mean survival time, dose: 200.0 mg/kg/injection, schedule: Q04DX003 (ip), vehicle: saline with Tween-80
[14] = endpoint: mean survival time, dose: 400.0 mg/kg/injection, schedule: Q01DX009 (ip), vehicle: saline with Tween-80
[15] = endpoint: mean survival time, dose: 400.0 mg/kg/injection, schedule: Q04DX003 (ip), vehicle: saline with Tween-80
[16] = endpoint: mean survival time, dose: 50.0 mg/kg/injection, schedule: Q01DX009 (ip), vehicle: saline with Tween-80
[17] = endpoint: mean survival time, dose: 75.0 mg/kg/injection, schedule: Q01DX001 (ip), vehicle: saline

Measured: T/C

CN(C)C1C(c2ccccc2)S(=O)(=O)C1(C)C (stereo not given)
inactive: [1] 100 % of control | [2] 96 % of control | [3] 100 % of control | [4] 101 % of control | [5] 100 % of control | [6] 97 % of control

c1cc(C[N+]23CN4CN(CN(C4)C2)C3)cs1
inactive: [7] 91 % of control

Cc1cccc(NC(=O)COc2ccc(Cl)cc2C)c1
inactive: [8] 110 % of control | [9] 94 % of control | [10] 98 % of control

CCOC(=O)C1CC1C(=O)OCC (stereo not given)
inactive: [11] 88 % of control | [7] 100 % of control | [12] 104 % of control | [13] 96 % of control | [14] 100 % of control | [15] 103 % of control

NC(=S)N/N=C/c1cc(Cl)c2nc(-c3ccccc3)ccc2c1
inactive: [7] 104 % of control | [13] 102 % of control | [15] 104 % of control

CC1=CCC(=O)O1
inactive: [8] 102 % of control | [9] 98 % of control | [10] 102 % of control

Cc1ccccc1NC(=O)C1CCC(C)(C(=O)O)C1(C)C (stereo not given)
inactive: [7] 98 % of control | [13] 93 % of control | [15] 96 % of control

O=C(C1=C/C(=C\c2ccccc2)CCC1)c1ccccc1
inactive: [11] 98 % of control | [7] 104 % of control | [12] 94 % of control | [13] 100 % of control | [14] 88 % of control | [15] 102 % of control

CNC1CCCCC1[N+](C)(C)C (stereo not given)
inactive: endpoint: mean survival time, dose: 5.0 mg/kg/injection, schedule: Q01DX009 (ip), vehicle: saline 98 % of control | endpoint: mean survival time, dose: 5.0 mg/kg/injection, schedule: Q04DX003 (ip), vehicle: saline 103 % of control | endpoint: mean survival time, dose: 10.0 mg/kg/injection, schedule: Q01DX009 (ip), vehicle: saline 101 % of control | endpoint: mean survival time, dose: 10.0 mg/kg/injection, schedule: Q04DX003 (ip), vehicle: saline 101 % of control | endpoint: mean survival time, dose: 20.0 mg/kg/injection, schedule: Q01DX009 (ip), vehicle: saline 96 % of control | endpoint: mean survival time, dose: 20.0 mg/kg/injection, schedule: Q04DX003 (ip), vehicle: saline 98 % of control

CCN(CC)C(=S)SC/C=C\CC(Cl)(Cl)Cl
inactive: endpoint: mean survival time, dose: 75.0 mg/kg/injection, schedule: Q04DX003 (ip), vehicle: saline 97 % of control | endpoint: mean survival time, dose: 150.0 mg/kg/injection, schedule: Q04DX003 (ip), vehicle: saline 101 % of control | endpoint: mean survival time, dose: 300.0 mg/kg/injection, schedule: Q04DX003 (ip), vehicle: saline 109 % of control

O=C1c2ccccc2C(=O)N1c1nc2ccccc2s1
inactive: [8] 96 % of control | [9] 89 % of control | [10] 100 % of control

Cc1nc(C)c2c(n1)Oc1ccc3ccccc3c1C2
inactive: [1] 97 % of control | [3] 97 % of control | [5] 97 % of control

CCOC(=O)c1ccc(NC(=O)N(C)C2CCCCC2)cc1
inactive: [16] 95 % of control and 102 % of control | [11] 100 % of control and 104 % of control | [8] 91 % of control and 92 % of control | [7] 92 % of control | [12] 100 % of control and 104 % of control | [9] 92 % of control and 109 % of control | [13] 96 % of control | [10] 102 % of control | [15] 91 % of control

CN(C1=CC(=O)C(=O)c2ccccc21)c1ccccc1
inactive: [17] 97 % of control | endpoint: mean survival time, dose: 150.0 mg/kg/injection, schedule: Q01DX001 (ip), vehicle: saline 95 % of control | endpoint: mean survival time, dose: 300.0 mg/kg/injection, schedule: Q01DX001 (ip), vehicle: saline 100 % of control

CC(CNC1CCCCC1)OC(=O)c1ccc(N)cc1 (stereo not given)
inactive: [17] 102 % of control

CC1(C)N=C(N)N=C(N)N1c1ccc(CCCCc2cccc(S(=O)(=O)F)c2)c(Cl)c1
inactive: endpoint: mean survival time, dose: 2.5 mg/kg/injection, schedule: Q01DX009 (ip), vehicle: saline with Tween-80 98 % of control | endpoint: mean survival time, dose: 5.0 mg/kg/injection, schedule: Q01DX009 (ip), vehicle: saline with Tween-80 104 % of control | endpoint: mean survival time, dose: 6.25 mg/kg/injection, schedule: Q04DX003 (ip), vehicle: saline sonified 89 % of control | endpoint: mean survival time, dose: 10.0 mg/kg/injection, schedule: Q01DX009 (ip), vehicle: saline with Tween-80 103 % of control | endpoint: mean survival time, dose: 12.5 mg/kg/injection, schedule: Q04DX003 (ip), vehicle: saline sonified 93 % of control | endpoint: mean survival time, dose: 20.0 mg/kg/injection, schedule: Q01DX009 (ip), vehicle: saline with Tween-80 112 % of control | endpoint: mean survival time, dose: 25.0 mg/kg/injection, schedule: Q04DX003 (ip), vehicle: saline sonified 96 % of control

CCCCCCCCCCCCCCCCOc1ccc(S(=O)(=O)NC2CCCCC2)cc1N
inactive: [7] 104 % of control | [13] 94 % of control | [15] 96 % of control

Cn1c(=O)c2c(ncn2C(C=O)OC(C=O)CO)n(C)c1=O (stereo not given)
inactive: endpoint: mean survival time, dose: 12.5 mg/kg/injection, schedule: Q01DX005 (ip), vehicle: water 101 % of control | endpoint: mean survival time, dose: 25.0 mg/kg/injection, schedule: Q01DX005 (ip), vehicle: water 104 % of control | endpoint: mean survival time, dose: 50.0 mg/kg/injection, schedule: Q01DX005 (ip), vehicle: water 110 % of control | endpoint: mean survival time, dose: 100.0 mg/kg/injection, schedule: Q01DX005 (ip), vehicle: water 112 % of control

O=C1OCC/C1=C1/CCOC1
inactive: endpoint: mean survival time, dose: 25.0 mg/kg/injection, schedule: Q01DX009 (ip), vehicle: saline with Tween-80 101 % of control | [16] 101 % of control

CN(C)CCSc1nnc(N)s1
inactive: [3] 100 % of control

COc1c(C)c2c(c3c1CCC(C)(CCC(=O)O)O3)C(=O)OC2 (stereo not given)
inactive: [8] 103 % of control | [9] 108 % of control | [10] 100 % of control

CC(=O)Nc1cccc(/C=C/c2cccc([N+](=O)[O-])c2)c1
inactive: endpoint: mean survival time, dose: 100.0 mg/kg/injection, schedule: Q01DX001 (ip), vehicle: Klucel (hydroxypropylcellulose) (HPC) 103 % of control | endpoint: mean survival time, dose: 200.0 mg/kg/injection, schedule: Q01DX001 (ip), vehicle: Klucel (hydroxypropylcellulose) (HPC) 93 % of control | endpoint: mean survival time, dose: 400.0 mg/kg/injection, schedule: Q01DX001 (ip), vehicle: Klucel (hydroxypropylcellulose) (HPC) 100 % of control

Cc1cc(C)c(O)c(C(=O)CC2CC(=O)NC(=O)C2)c1
inactive: [11] 100 % of control | [7] 95 % of control | [12] 105 % of control | [13] 97 % of control | [14] 101 % of control | [15] 95 % of control

NC(=O)c1[nH]nc(C2OC(COP(=O)(O)O)C(O)C2O)c1O (stereo not given)
inactive: endpoint: median survival time, dose: 6.25 mg/kg/injection, schedule: Q01DX005 (ip), vehicle: saline 122 % of control | endpoint: median survival time, dose: 12.5 mg/kg/injection, schedule: Q01DX005 (ip), vehicle: saline 93 % of control | endpoint: median survival time, dose: 25.0 mg/kg/injection, schedule: Q01DX005 (ip), vehicle: saline 93 % of control

CCOc1cc2ccc3c4cc(OC)c(OC)cc4c[n+](C)c3c2cc1OCC
inactive: endpoint: mean survival time, dose: 25.0 mg/kg/injection, schedule: Q04DX002 (ip), vehicle: saline with Tween-80 107 % of control | endpoint: mean survival time, dose: 50.0 mg/kg/injection, schedule: Q04DX002 (ip), vehicle: saline with Tween-80 111 % of control | [8] 103 % of control

C#CC(OC(=O)NC(CCSC)C(=O)OC)(c1ccccc1)c1ccccc1 (stereo not given)
inactive: endpoint: mean survival time, dose: 25.0 mg/kg/injection, schedule: Q01DX001 (ip), vehicle: saline with Tween-80 102 % of control | endpoint: mean survival time, dose: 50.0 mg/kg/injection, schedule: Q01DX001 (ip), vehicle: saline with Tween-80 94 % of control | endpoint: mean survival time, dose: 100.0 mg/kg/injection, schedule: Q01DX001 (ip), vehicle: saline with Tween-80 102 % of control

O=NC1CCCCC1Cl (stereo not given)
inactive: [1] 96 % of control and 98 % of control and 93 % of control | [3] 95 % of control and 102 % of control and 100 % of control | [5] 101 % of control and 105 % of control

CCn1ncc2ccc(N(CO)CO)cc21
inactive: [2] 103 % of control | [4] 106 % of control | [6] 100 % of control

O=Cc1cc2c3c(c1)CCCN3CCC2
inactive: [7] 97 % of control | [13] 102 % of control | [15] 94 % of control

O=C(Nc1ccc2cc(S(=O)(=O)O)ccc2c1)c1ccc(N=Nc2c(S(=O)(=O)O)cc3cc(S(=O)(=O)O)cc(NC(=O)c4ccccc4)c3c2O)cc1
inactive: [16] 96 % of control | [11] 101 % of control

CCCOC(=O)c1cc([N+](=O)[O-])cc([N+](=O)[O-])c1Sc1ncnc2nc[nH]c12
inactive: endpoint: mean survival time, dose: 0.63 mg/kg/injection, schedule: Q01DX005 (ip), vehicle: other 102 % of control | endpoint: mean survival time, dose: 1.25 mg/kg/injection, schedule: Q01DX005 (ip), vehicle: other 105 % of control | endpoint: mean survival time, dose: 2.5 mg/kg/injection, schedule: Q01DX005 (ip), vehicle: other 102 % of control | endpoint: mean survival time, dose: 5.0 mg/kg/injection, schedule: Q01DX005 (ip), vehicle: other 105 % of control | endpoint: mean survival time, dose: 10.0 mg/kg/injection, schedule: Q01DX005 (ip), vehicle: other 105 % of control | endpoint: mean survival time, dose: 20.0 mg/kg/injection, schedule: Q01DX005 (ip), vehicle: other 106 % of control | endpoint: mean survival time, dose: 40.0 mg/kg/injection, schedule: Q01DX005 (ip), vehicle: other 113 % of control

Reference: PubChem BioAssay AID256 (DTP/NCI, 2004)
